Here are results for 22 compounds from US7652020B2, “Compounds for the treatment of inflammatory disorders” (Schering Corporation, priority 2004, dated 2010).

Read-outs that look alike come from different tables or passages of the source.

In the experiment the target is T1, purified catalytic domain of recombinant human TACE (rhTACEc) (Homo sapiens, UniProt P78536, N452Q/S266A).
T1 construct: Residue 215 to 477 with two mutation (S266A and N452Q) and a 6×His tail; 6xHis (C); made in house; host or cells: baculovirus/Hi5 insect cells
T1 sequence (P78536 215-477 S266A/N452Q): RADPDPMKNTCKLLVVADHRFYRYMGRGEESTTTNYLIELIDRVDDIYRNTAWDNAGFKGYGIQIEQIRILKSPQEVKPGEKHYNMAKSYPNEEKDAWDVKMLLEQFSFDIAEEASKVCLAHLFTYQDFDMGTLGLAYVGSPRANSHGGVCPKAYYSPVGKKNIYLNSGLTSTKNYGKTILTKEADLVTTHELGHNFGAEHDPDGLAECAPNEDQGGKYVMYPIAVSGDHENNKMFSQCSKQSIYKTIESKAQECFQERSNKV
Briefly: TACE kinetic assay: cleavage of internally quenched peptide substrate SPDL-3, fluorescence. The experiment is classed as biochemical. To be noted: read-out: Ki.

Setting [1] is: TACE inhibitory activity, class symbols.
[2] abbreviates: TACE, representative compounds, numeric values.

Regarding `CC(=O)Nc1nc([C@H]2CCCN2C(=O)[C@H](O)[C@@H](O)C(=O)N[C@H](C)c2ccc(-n3cccn3)cc2)cs1` [Compound 2579], the Ki (usually a dissociation constant, usually derived from enzyme kinetics or from competition with a known ligand) under setting [1] was less than 0.02 µM.

For `C[C@@H](NC(=O)[C@H](O)[C@@H](O)C(=O)N1CCC[C@@H]1c1csc(NS(C)(=O)=O)n1)c1ccc(-n2cccn2)cc1` [Compound 2581], the Ki under setting [1] is less than 0.02 µM.

Take `C[C@@H](NC(=O)[C@H](O)[C@@H](O)C(=O)N1CCC[C@@H]1c1csc(N(C)S(C)(=O)=O)n1)c1ccc(-n2cccn2)cc1` [Compound 2582]: the Ki under setting [1] was less than 0.02 µM.

Consider `C[C@@H](NC(=O)[C@H](O)[C@@H](O)C(=O)N1CCc2ccccc2[C@@H]1c1csc(N)n1)c1ccc(-n2cccn2)cc1` [Compound 2585], for which the Ki under setting [1] was less than 0.02 µM.

For the compound `CNc1nc([C@H]2c3ccccc3CCN2C(=O)[C@H](O)[C@@H](O)C(=O)N[C@H](C)c2ccc(-n3cccn3)cc2)cs1` [Compound 2586], under setting [1], the Ki was less than 0.02 µM.

Take `CCNc1nc([C@H]2c3ccccc3CCN2C(=O)[C@H](O)[C@@H](O)C(=O)N[C@H](C)c2ccc(-n3cccn3)cc2)cs1` [Compound 2587]: the Ki under setting [1] is less than 0.02 µM.

For `CC(C)Nc1nc([C@H]2c3ccccc3CCN2C(=O)[C@H](O)[C@@H](O)C(=O)N[C@H](C)c2ccc(-n3cccn3)cc2)cs1` [Compound 2588], the Ki under setting [1] was less than 0.02 µM.

Consider `CC(C)Nc1nc([C@H]2c3ccc(Cl)cc3CCN2C(=O)[C@H](O)[C@@H](O)C(=O)N[C@H](C)c2ccc(-n3cccn3)cc2)cs1` [Compound 2589], for which the Ki under setting [1] was less than 0.02 µM.

Regarding `CC(C)Nc1nc([C@@H]2c3ccc(Cl)cc3CCN2C(=O)[C@H](O)[C@@H](O)C(=O)N[C@H](C)c2ccc(-n3cccn3)cc2)cs1` [Compound 2590], the Ki under setting [1] was less than 0.02 µM.

Consider `Cc1nc([C@H]2CCCN2C(=O)[C@H](O)[C@@H](O)C(=O)N[C@H](C)c2ccc(-n3cccn3)cc2)cs1` [Compound 2591], for which, under setting [1], the Ki is less than 0.02 µM.

`CC(C)Nc1nc([C@H]2c3ccccc3CN2C(=O)[C@H](O)[C@@H](O)C(=O)N[C@H](C)c2ccc(-n3cccn3)cc2)cs1` [Compound 2592]: under setting [1], the Ki is less than 0.02 µM.

With `CC(C)Nc1nc([C@@H]2c3ccccc3CN2C(=O)[C@H](O)[C@@H](O)C(=O)N[C@H](C)c2ccc(-n3cccn3)cc2)cs1` [Compound 2593], the Ki under setting [1] was less than 0.02 µM.

Regarding `CCNc1nc([C@H]2c3ccccc3CN2C(=O)[C@H](O)[C@@H](O)C(=O)N[C@H](C)c2ccc(-n3cccn3)cc2)cs1` [Compound 2594], the Ki under setting [1] is less than 0.02 µM.

Take `CCNc1nc([C@@H]2c3ccccc3CN2C(=O)[C@H](O)[C@@H](O)C(=O)N[C@H](C)c2ccc(-n3cccn3)cc2)cs1` [Compound 2595]: the Ki under setting [1] is less than 0.02 µM.

Regarding `C[C@@H](NC(=O)[C@H](O)[C@@H](O)C(=O)N1CCc2cc(Cl)ccc2C1c1cc[nH]n1)c1ccc(-n2cccn2)cc1` (stereo partly shown) [Compound 2596], the Ki under setting [1] was less than 0.02 µM.

`C[C@@H](NC(=O)[C@H](O)[C@@H](O)C(=O)N1CCC[C@@H]1c1ccn(-c2ccccc2)n1)c1ccc(-n2cccn2)cc1` [Compound 2597]: under setting [1], the Ki was less than 0.02 µM.

In the case of `C[C@@H](NC(=O)[C@H](O)[C@@H](O)C(=O)N1CCC[C@@H]1c1ccn(-c2cccc(F)c2)n1)c1ccc(-n2cccn2)cc1` [Compound 2598], the Ki under setting [1] was less than 0.02 µM.

Turning to `C[C@@H](NC(=O)[C@H](O)[C@@H](O)C(=O)N1CCC[C@@H]1c1ccn(-c2ccc(F)cc2)n1)c1ccc(-n2cccn2)cc1` [Compound 2599], the Ki under setting [1] was less than 0.02 µM.

In the case of `C[C@@H](NC(=O)[C@H](O)[C@@H](O)C(=O)N1CCCC1c1nccs1)c1ccc(-n2cccn2)cc1` (stereo partly shown) [Compound 2600], the Ki under setting [1] was less than 0.02 µM.

For the compound `CC#CCOc1cc([C@@H](C)NC(=O)[C@H](O)[C@@H](O)C(=O)N2Cc3cccnc3C2)ccc1-n1cccn1` [drawing 1292], under setting [2], the Ki came out at 0.00025 µM.

Turning to `CNc1nc([C@H]2CCCN2C(=O)[C@H](O)[C@@H](O)C(=O)N[C@H](C)c2ccc(-n3cccn3)cc2)c(S(C)(=O)=O)s1` [drawing 1294], the Ki under setting [2] came to 0.00038 µM.

For the compound `C[C@@H](NC(=O)[C@H](O)[C@@H](O)C(=O)N1CC=C[C@@H]1c1cccc(Cl)c1)c1ccc(-n2cccn2)cc1` [drawing 1295], the Ki under setting [2] came out at 0.00049 µM.
